ChEMBL document CHEMBL1136329, “A theoretical investigation on DPPH radical-scavenging mechanism of edaravone” (Bioorg Med Chem Lett, 2003)

Test: Scavenging activity against DPPH
Type: functional

CC1=NN(c2ccccc2)C(=O)C1 [EDARAVONE]
IC50: 29.3 uM l-1
